Values joined by “and” are separate entries in the source; they are usually repeats but may differ in a detail not shown here. Identical values can stand only once.
Key:
[1] = test system: Marmoset monkeys (Callithrix jacchus), established endometriosis; test: Colour Doppler ultrasonic scanning of blood flow (bladder area, reproductive tract area); assay type: in vivo; parameters: key to Individual data on blood flow bladder / Individual data on blood flow repro tract: 0=blood flow not visible; 1=weak blood flow; 2=medium blood flow; 3=massive blood flow; conditions: for Individual data on blood flow bladder / Individual data on blood flow repro tract: individual animals 1-8 (one line each), 6.67 mg/kg; for Individual data on blood flow bladder / Individual data on blood flow repro tract / Blood flow bladder, median score / Blood flow repro tract, median score: oral 6.67 mg/kg twice/day; for Blood flow bladder, median score / Blood flow repro tract, median score: median of 8 animals, scale 0-3, baseline median 2
Procedure: (§1) The substance as depicted below (prepared according to the procedure in WO 2012/022793 A1) was orally administered (as the hydrogen sulphate salt thereof) for 6 weeks to common marmoset monkeys at a dose of 6.67 mg/kg twice/day (calculated based on the free base, with the actual weight of compound administered calculated as required for the hydrogen sulphate salt).
(§2) The age of the marmosets ranged between 3 and 16 years. All animals were female and had established endometriosis over years. Induction of endometriosis was performed as described in Einspanier et al., Mol Human Reprod., 12(5), 291-9 (2006).
Colour Doppler ultrasonic scanning was done before and 3 times during the treatment period to follow blood flow. Colour doppler scanning was carried out as described by Einspanier (ibid).
Colour Doppler ultrasonic scanning was performed to measure blood flow in the reproductive tract (uterus and ovaries) area as well as in the bladder area.
Individual blood flow measurements are provided in Table 1, 0=blood flow not visible, 1=weak blood flow, 2=medium blood flow and 3=massive blood flow.

[2] = test system: Marmoset monkeys (Callithrix jacchus), established endometriosis; test: Feeding tree behaviour test; assay type: in vivo; conditions: during treatment, all animals
Text: (§3) Different behavioural test systems were used to study pain and discomfort, social comfort, memory, learning and activity were set up. All primates used in the study were familiar with the test-systems (for a period of more than 6 months) to confirm that the obtained results are related to the medication and not a learning effect over time.
(§4) Two test systems were used in the study as described in Arnold et al., J Med Primatol., 40, 317-326 (2011). • 1. Feeding tree • 2. Wisconsin General Testing apparatus (WGTA) Before and during the study documentation of social interaction, such as grooming, were performed.
The feeding tree was to test movement activity associated with pain, discomfort and/or distress. The feeding tree offers food at different positions to reach, which requires different levels of movement. If an animal has discomfort, distress or abdominal pain it will not search for food at upper areas or at all. Moreover, systematic search is reduced if memory is impaired. In the setting, each primate had to empty every reward-containing hideouts within 5 minutes to be fully successful. The response of the 8 animals was graded before, during and after treatment on a scale of 0-4 indicting the number of hideouts emptied within 5 minutes.

[3] = test system: Marmoset monkeys (Callithrix jacchus), established endometriosis; test: Reproductive cycle monitoring by serum progesterone; assay type: in vivo; conditions: after treatment
Procedure: For analysis of serum progesterone concentration to monitor the reproductive cycle, blood was collected weekly before and during treatment. Serum was separated from blood samples by centrifugation (2600 rpm 10 min, Eppendorf Centrifuge 5810 R) within two hours of sampling and stored at minus 80° C.

[4] = Body weight (weighed weekly); assay type: in vivo, Marmoset monkeys (Callithrix jacchus); conditions: during the treatment period; oral 6.67 mg/kg twice/day for 6 weeks
Procedure: (§5) All animals were weighed weekly before and during the treatment. Health body checks including clinical signs as well as blood chemistry analysis were carried out in a regular manner by the responsible vet.

[5] = test system: Marmoset monkeys (Callithrix jacchus), established endometriosis; test: Laparotomy assessment of endometriotic lesions (number and size of foci); assay type: in vivo
Procedure: as §1, §2
Laparotomy was carried out twice, seven weeks before treatment start of treatment and immediately after end of treatment. There was a duration of at least 3 months between each laparotomy.
After pre-medication with Göttinger Mischung M II (Ketamin, Xylazin and Atropin mixture), an inhalation anaesthesia with Isofluran was carried out which last in average 60 minutes. The abdomen was opened beside line alba for 1 cm range to visualise the reproductive tract and bladder. The endometriotic lesions were characterized and documented in pictures. During the second laparoptomy samples from the lesions were collected. Postoperative care of the animals was carried out as required by local law. The collected tissue samples were fixed in paraformaldehyde and embedded in paraffin or stored at −80° C. Before abdominal suture, all organs were replaced in their place. All females were separated from their males for some hours due to medical reasons and obtained antibiotics for some days.
Laparotomy analysis was performed to assess endometriotic lesions.

[6] = test system: Marmoset monkeys (Callithrix jacchus), established endometriosis; test: General health status: clinical signs and blood chemistry; assay type: in vivo; conditions: oral 6.67 mg/kg twice/day for 6 weeks
Procedure: as §5

[7] = test system: Marmoset monkeys (Callithrix jacchus), established endometriosis; test: Social interaction (grooming) observation; assay type: in vivo; conditions: during treatment compared to before treatment, all animals
Procedure: as §4
The documentation of grooming was carried out by daytime observation. These behaviour observations give information about wellbeing, while grooming is a marker for positive social activity. The social grooming was documented 1 h after breakfast and 1 h after lunch by observing the couples each time for 10 minutes. For each animal, the number of grooming interactions in the observed period was recorded.

[8] = test system: Marmoset monkeys (Callithrix jacchus), established endometriosis; test: Wisconsin General Testing Apparatus (WGTA) memory and learning test; assay type: in vivo; conditions: during the treatment, all females
Text: as §3, §4
Memory and learning of the primates were tested. All animals are train-rewarded for the WGTA. The animal, which is sitting in the transport box, is either trained for special figures or places, which hide the reward. The observer can watch the behaviour of the animal, but the animal cannot see the observer.
The 8 animals were tested in the WGTA for memory by remembering either the figure or location of the hidden reward. Wellbeing of a primate is associated with willingness to search for food, which is also included by this test system. The animals have to find the reward underneath the three different figures three times within 5 minutes. Each animal is either trained for the location of the figure or figure itself.

[9] = Week 7 (EoT), individual animals 1-8 (one line each), oral 6.67 mg/kg twice/day for 6 weeks
[10] = Week 7 (EoT), individual animals 1-8 (one line each), oral 6.67 mg/kg twice/day for 6 weeks, 6.67 mg/kg

- Blood laboratory parameters ([6]; before and after treatment): in the physiological range
- Clinical signs, general health behaviour of the study animals ([6]; during the study period, 8 female marmosets): no changes
SMILES: Cn1c(Nc2c(Cl)ccc(CNC(=O)C(C)(C)C)c2Cl)nc2cc(C(=O)N[C@H]3CC[C@H](C(F)(F)F)CC3)c(OCC(F)F)cc21 [compound of formula I, 2-{2,6-dichloro-3-[(2,2-dimethyl-propionylamino)-methyl]-phenylamino}-6-(2,2-difluoroethoxy)-1-methyl-1H-benzoimidazole-5-carboxylic acid (trans-4-trifluoromethylcyclohexyl)-amide]
- Individual data on blood flow bladder ([1]; Week 1): 3 (3×) and 2 (3×) and 1 (2×)
- Individual data on blood flow repro tract ([1]; Week 1): 3 and 2 (5×) and 1 (2×)
- Blood flow bladder, median score ([1]; Week 1): 2
- Blood flow repro tract, median score ([1]; Week 1): 2
- Individual data on blood flow bladder ([1]; Week 4): 3 and 2 (3×) and 1 (4×)
- Individual data on blood flow repro tract ([1]; Week 4): 2 (3×) and 1 (4×) and 0
- Blood flow bladder, median score ([1]; Week 4): 1.5
- Blood flow repro tract, median score ([1]; Week 4): 1
- Individual data on blood flow bladder ([1]; Week 6): 2 and 1 (7×)
- Individual data on blood flow repro tract ([1]; Week 6): 2 (3×) and 1 (3×) and 0 (2×)
- Blood flow in reproductive tract (uterus and ovaries) area and bladder area, result in words ([1]; all animals, both areas, oral 6.67 mg/kg twice/day for 6 weeks): Decreased blood flow
- Success rate in the feeding tree (hideouts emptied within 5 minutes, scale 0-4) [2]: improved
- Animals showing irregular cycles ([3]; of 8 animals, before therapy 5 irregular cycles and 1 no activity): 2 animals
- Animals showing ovarian cycle activity ([3]; before therapy 2 of 8 animals showed ovarian cycle activity): 6 out of 8
- Change in body weight [4]: no significant change
- Number of endometriotic lesions repro tract, lesion size 2-4 mm [5, 9]: 0
- Number of endometriotic lesions repro tract, lesion size >4 mm [5, 9]: 0
- Number of endometriotic lesions on the bladder, Total [5, 10]: 4 (2×) and 14 and 24 and 7 and 12 and 5 and 10
- Number of endometriotic lesions on the bladder, lesion size 2-4 mm [5, 10]: 0 (6×) and 3 and 5
- Number of endometriotic lesions on the bladder, lesion size <2 mm [5, 10]: 0 (4×) and 5 and 12 and 4 and 7
- Number of endometriotic lesions on the bladder, lesion size >4 mm [5, 10]: 0 (6×) and 3 and 2
- Number of endometriotic lesions on the bladder, lesion size s.p. (visible but not measurable) [5, 10]: 4 and 2 and 5 (2×) and 7 and 0 and 12 and 3
- Number of endometriotic lesions repro tract, Total [5, 10]: 0 (2×) and 3 (2×) and 8 and 2 (2×) and 4
- Number of endometriotic lesions repro tract, lesion size <2 mm [5, 10]: 0 (5×) and 2 (2×) and 4
- Number of endometriotic lesions repro tract, lesion size s.p. (visible but not measurable) [5, 10]: 0 (2×) and 1 and 4 and 3 and 2 (3×)
- Endometric foci at laparotomy, result in words ([5]; all animals, all sizes of foci affected, after 6 weeks of treatment): Pronounced reduction
- Grooming interactions [7]: increased
- WGTA success rate of correct figure or location within time [8]: increased success rate

Source: US20260146029A1, “METHODS FOR THE TREATMENT OR PROPHYLAXIS OF ENDOMETRIOSIS” (Gesynta Pharma AB, priority 2022, published 2026)
